Results: PMC7614683, “A small molecule PI3Kα activator for cardioprotection and neuroregeneration” (Nature, 2023)

Assays:
adult rat DRG neurons = assay: Neurite outgrowth in dissociated adult rat dorsal root ganglion cultures; type: cell-based; settings: 72h; BYL719 500 nM with 1938 above 10^-7 M
Text: Dissociated adult rat dorsal root ganglion (DRG) cultures were used as an in vitro model for neuroregeneration[80],[81]. DRG neurons were isolated from adult male (>250g) Wistar rats as described, with DRGs from each rat cultured separately. Following culling via schedule 1 (rising concentration of CO2), the spinal column was removed and stored in PBS on ice. Cord tissue was removed to expose the DRGs and roots in the intervertebral foramen and the DRGs removed with forceps and scalpel under a dissecting microscope (Olympus SZ40). DRGs were manually cleaned by removal of roots, capsule and capillaries with forceps and then placed in DMEM supplemented with P/S. DRGs were treated with 0.125% collagenase type IV solution at 37°C for 90 min, and then mechanically dissociated by trituration using a 1 ml pipette. The collagenase solution was removed by 2 rounds of centrifugation in complete DMEM (DMEM with 1% P/S and 10% FBS) at 400 xg for 5 min, followed by resuspension of the DRG cell pellet in complete DMEM supplemented with 0.01 mM cytosine arabinoside. DRGs were plated in 75-cm[2] flasks coated with 0.1 mg/ml poly-D-lysine and incubated at 37°C, 5% CO2. […] 9 fields per well were captured and analysed using the CSIRO Neurite Analysis 2 […] in Columbus analysis software (Perkin Elmer). […]

PI3Kα-WT A549 cells = assay: TIRF microscopy of PIP3 reporter, PI3Kα-WT A549; type: cell-based, human; settings: 1938, then BYL719 0.5 μM
Method: Phosphoinositide reporters used were GFP-PH-ARNO^I303Ex2 (PIP3 reporter[41]) and mCherry-cPH-TAPP1x3 (PI(3,4)P2 reporter[41]). TIRF microscopy allows selective imaging of the small cell volume, including the plasma membrane, directly adjacent to the coverslip onto which cells have been seeded. HeLa or A549 cells were seeded in Matrigel-coated (Corning #354230; diluted in Opti-MEM at 1:50) 8-well chamber slides (glass bottom, 1.55 refractive index; Thermo Fisher Scientific #155409) at a density of 5,000 cells/well. […]
Image analyses of total reporter intensities were performed with the Fiji open source image analysis package. The region of interest (ROI) corresponding to the footprint of the individual cell across time points were defined using minimal intensity projection to select only pixels present across all time points, following prior subtraction of camera noise (rolling ball method, radius = 500 pixels) and xy drift correction, intensity levels over time were measured. […] All other quantifications were performed using the open source software R/RStudio. The values plotted in Fig. 3d (iii) represent mean±SEM, following signal scaling to minimum and maximum values of the normalised fluorescence intensity for each time point (Fn(t)). […]

Cc1nc(NC(=O)N2CCC[C@H]2C(N)=O)sc1-c1ccnc(C(C)(C)C(F)(F)F)c1 [BYL719, reference compound]
neurite outgrowth (total length of neurites) (adult rat DRG neurons): partially reduced the increase in neurite outgrowth | plasma membrane PIP3 (biosensor) (PI3Kα-WT A549 cells): fully and acutely neutralized
